Measured values published in PubChem BioAssay (NCI).
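1) Cells in 96-well plates. 2) Compound, 48 h, 5 concentrations. 3) Linear interpolation between surrounding doses. 4) Unreached endpoint = highest concentration. Here, GI50 denotes the concentration required for 50% inhibition of growth. TGI marks complete inhibition of growth.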

Assays:
Experiment in all cases: inhibition of tumour cell growth, NCI panel, 48 h; in the data active = GI50 below about 0.43 µM; inactive = the rest
786-0 renal = system: 786-0 renal
A498 renal = system: A498 renal
A549 NSCLC = system: A549 NSCLC
ACHN renal = system: ACHN renal
CAKI-1 renal = system: CAKI-1 renal
CCRF-CEM leukemia = system: CCRF-CEM leukemia
COLO 205 colon = system: COLO 205 colon
DU-145 prostate = system: DU-145 prostate
EKVX NSCLC = system: EKVX NSCLC
HCC-2998 colon = system: HCC-2998 colon
HCT-116 colon = system: HCT-116 colon
HCT-15 colon = system: HCT-15 colon
HOP-62 NSCLC = system: HOP-62 NSCLC
HOP-92 NSCLC = system: HOP-92 NSCLC
HS 578T breast = system: HS 578T breast
HT29 colon = system: HT29 colon
IGROV1 ovarian = system: IGROV1 ovarian
K-562 leukemia = system: K-562 leukemia
KM12 colon = system: KM12 colon
LOX IMVI melanoma = system: LOX IMVI melanoma
M14 melanoma = system: M14 melanoma
MALME-3M melanoma = system: MALME-3M melanoma
MCF7 breast = system: MCF7 breast
MDA-MB-231 breast = system: MDA-MB-231 breast
MDA-MB-435 = system: MDA-MB-435
MOLT-4 leukemia = system: MOLT-4 leukemia
NCI-H226 lung = system: NCI-H226 lung
NCI-H23 lung = system: NCI-H23 lung
NCI-H460 lung = system: NCI-H460 lung
NCI-H522 lung = system: NCI-H522 lung
NCI/ADR-RES ovarian = system: NCI/ADR-RES ovarian
OVCAR-3 ovarian = system: OVCAR-3 ovarian
OVCAR-4 ovarian = system: OVCAR-4 ovarian
OVCAR-5 ovarian = system: OVCAR-5 ovarian
OVCAR-8 ovarian = system: OVCAR-8 ovarian
PC-3 prostate = system: PC-3 prostate
RPMI-8226 leukemia = system: RPMI-8226 leukemia
SF-268 CNS = system: SF-268 CNS
SF-295 CNS = system: SF-295 CNS
SF-539 CNS = system: SF-539 CNS
SK-MEL-2 melanoma = system: SK-MEL-2 melanoma
SK-MEL-28 melanoma = system: SK-MEL-28 melanoma
SK-MEL-5 melanoma = system: SK-MEL-5 melanoma
SK-OV-3 ovarian = system: SK-OV-3 ovarian
SN12C renal = system: SN12C renal
SNB-19 CNS = system: SNB-19 CNS
SNB-75 CNS = system: SNB-75 CNS
SW-620 colon = system: SW-620 colon
T-47D breast = system: T-47D breast
TK-10 renal = system: TK-10 renal
U251 CNS = system: U251 CNS
UACC-257 melanoma = system: UACC-257 melanoma
UACC-62 melanoma = system: UACC-62 melanoma
UO-31 renal = system: UO-31 renal
BT-549 breast = system: BT-549 breast
HL-60(TB) leukemia = system: HL-60(TB) leukemia
RXF 393 renal = system: RXF 393 renal
SR leukemia = system: SR leukemia

COc1cc2c(cc1OCCCCC(=O)Nc1cc3c4ccccc4ccc3c3ccccc13)N=C[C@@H]1CCCN1C2=O
> 76.2 µM: TGI (HT29 colon)
18.5 µM: TGI (KM12 colon)
> 92.9 µM: TGI (MDA-MB-435)
61.3 µM: TGI (A549 NSCLC)
5.73 µM: TGI (TK-10 renal)
> 20.9 µM: TGI (HOP-92 NSCLC)
7.61 µM: TGI (SK-MEL-5 melanoma)
> 65.9 µM: TGI (PC-3 prostate)
9.06 µM: TGI (SF-539 CNS)
88.8 µM: TGI (HCT-116 colon)
14.1 µM: TGI (DU-145 prostate)
63.1 µM: TGI (SF-295 CNS)
34.1 µM: TGI (MCF7 breast)
> 52.9 µM: TGI (SNB-75 CNS)
12.2 µM: TGI (SK-MEL-28 melanoma)
20 µM: TGI (OVCAR-8 ovarian)
52.8 µM: TGI (OVCAR-5 ovarian)
10.1 µM: TGI (OVCAR-3 ovarian)
> 38.9 µM: TGI (K-562 leukemia)
18.8 µM: TGI (786-0 renal)
64.2 µM: TGI (EKVX NSCLC)
9.38 µM: TGI (A498 renal)
> 85.7 µM: TGI (NCI/ADR-RES ovarian)
33.5 µM: TGI (HCC-2998 colon)
47.5 µM: TGI (NCI-H23 lung)
51.5 µM: TGI (NCI-H460 lung)
17 µM: TGI (MDA-MB-231 breast)
8.24 µM: TGI (UACC-62 melanoma)
33 µM: TGI (M14 melanoma)
58.8 µM: TGI (SK-MEL-2 melanoma)
89.3 µM: TGI (SN12C renal)
13.1 µM: TGI (CAKI-1 renal)
40.8 µM: TGI (HOP-62 NSCLC)
10.8 µM: TGI (NCI-H226 lung)
22.8 µM: TGI (OVCAR-4 ovarian)
18.4 µM: TGI (UACC-257 melanoma)
> 100 µM: TGI (ACHN renal) | TGI (CCRF-CEM leukemia) | TGI (COLO 205 colon) | TGI (HS 578T breast) | TGI (LOX IMVI melanoma) | TGI (MOLT-4 leukemia) | TGI (NCI-H522 lung) | TGI (SK-OV-3 ovarian) | TGI (SW-620 colon) | TGI (T-47D breast) | TGI (U251 CNS)
> 25.6 µM: TGI (IGROV1 ovarian)
15 µM: TGI (SF-268 CNS)
16 µM: TGI (MALME-3M melanoma)
> 61.7 µM: TGI (SNB-19 CNS)
inactive: GI50 (786-0 renal) 7.21 µM | GI50 (A498 renal) 2.9 µM | GI50 (A549 NSCLC) 27.1 µM | GI50 (ACHN renal) 38.8 µM | GI50 (CAKI-1 renal) 3.44 µM | GI50 (CCRF-CEM leukemia) 1.55 µM | GI50 (COLO 205 colon) 7.65 µM | GI50 (DU-145 prostate) 2.84 µM | GI50 (EKVX NSCLC) 17.3 µM | GI50 (HCC-2998 colon) 10.9 µM | GI50 (HCT-116 colon) 25.1 µM | GI50 (HCT-15 colon) 12.5 µM | GI50 (HOP-62 NSCLC) 10.1 µM | GI50 (HOP-92 NSCLC) 1.45 µM | GI50 (HS 578T breast) 17.7 µM | GI50 (HT29 colon) 5.86 µM | GI50 (IGROV1 ovarian) 2.11 µM | GI50 (K-562 leukemia) 1.55 µM | GI50 (KM12 colon) 3.87 µM | GI50 (LOX IMVI melanoma) 32.1 µM | GI50 (M14 melanoma) 8.1 µM | GI50 (MALME-3M melanoma) 3.85 µM | GI50 (MCF7 breast) 3.45 µM | GI50 (MDA-MB-231 breast) 1.06 µM | GI50 (MDA-MB-435) 5.44 µM | GI50 (MOLT-4 leukemia) 4.62 µM | GI50 (NCI-H226 lung) 0.665 µM | GI50 (NCI-H23 lung) 20 µM | GI50 (NCI-H460 lung) 5.33 µM | GI50 (NCI-H522 lung) 4.25 µM | GI50 (NCI/ADR-RES ovarian) 32.2 µM | GI50 (OVCAR-3 ovarian) 3.02 µM | GI50 (OVCAR-4 ovarian) 5.16 µM | GI50 (OVCAR-5 ovarian) 11.5 µM | GI50 (OVCAR-8 ovarian) 7.27 µM | GI50 (PC-3 prostate) 5.4 µM | GI50 (RPMI-8226 leukemia) 1.11 µM | GI50 (SF-268 CNS) 2.67 µM | GI50 (SF-295 CNS) 6.98 µM | GI50 (SF-539 CNS) 2.22 µM | GI50 (SK-MEL-2 melanoma) 8.4 µM | GI50 (SK-MEL-28 melanoma) 3.41 µM | GI50 (SK-MEL-5 melanoma) 2.93 µM | GI50 (SK-OV-3 ovarian) 34.3 µM | GI50 (SN12C renal) 22.6 µM | GI50 (SNB-19 CNS) 11.3 µM | GI50 (SNB-75 CNS) 19 µM | GI50 (SW-620 colon) 3.68 µM | GI50 (T-47D breast) 11.1 µM | GI50 (TK-10 renal) 2.33 µM | GI50 (U251 CNS) 8.02 µM | GI50 (UACC-257 melanoma) 7.77 µM | GI50 (UACC-62 melanoma) 0.658 µM | GI50 (UO-31 renal) 1.22 µM
> 52.6 µM: TGI (HCT-15 colon)

COc1ccc(C(=O)c2cc(C)c(OC)c(C)c2)c(OC)c1O
> 100 µM: TGI (786-0 renal) | TGI (A549 NSCLC) | TGI (ACHN renal) | TGI (CAKI-1 renal) | TGI (CCRF-CEM leukemia) | TGI (DU-145 prostate) | TGI (EKVX NSCLC) | TGI (HCT-116 colon) | TGI (HCT-15 colon) | TGI (HOP-62 NSCLC) | TGI (HOP-92 NSCLC) | TGI (HS 578T breast) | TGI (IGROV1 ovarian) | TGI (K-562 leukemia) | TGI (KM12 colon) | TGI (LOX IMVI melanoma) | TGI (MALME-3M melanoma) | TGI (MCF7 breast) | TGI (MDA-MB-231 breast) | TGI (MOLT-4 leukemia) | TGI (NCI-H23 lung) | TGI (OVCAR-4 ovarian) | TGI (OVCAR-5 ovarian) | TGI (OVCAR-8 ovarian) | TGI (PC-3 prostate) | TGI (RXF 393 renal) | TGI (SF-268 CNS) | TGI (SF-295 CNS) | TGI (SK-MEL-2 melanoma) | TGI (SK-MEL-28 melanoma) | TGI (SK-OV-3 ovarian) | TGI (SN12C renal) | TGI (SNB-19 CNS) | TGI (SNB-75 CNS) | TGI (SR leukemia) | TGI (SW-620 colon) | TGI (T-47D breast) | TGI (TK-10 renal) | TGI (U251 CNS) | TGI (UACC-257 melanoma) | TGI (UACC-62 melanoma)
0.292 µM: TGI (SK-MEL-5 melanoma)
9.06 µM: TGI (NCI-H226 lung)
> 62 µM: TGI (BT-549 breast)
> 62.6 µM: TGI (RPMI-8226 leukemia)
28.4 µM: TGI (COLO 205 colon)
> 54 µM: TGI (UO-31 renal)
> 27.4 µM: TGI (HCC-2998 colon)
active: GI50 (A549 NSCLC) 0.32 µM | GI50 (ACHN renal) 0.0566 µM | GI50 (BT-549 breast) 0.0272 µM | GI50 (CAKI-1 renal) 0.185 µM | GI50 (CCRF-CEM leukemia) 0.0323 µM | GI50 (DU-145 prostate) 0.0369 µM | GI50 (EKVX NSCLC) 0.238 µM | GI50 (HCC-2998 colon) 0.127 µM | GI50 (HCT-116 colon) 0.103 µM | GI50 (HCT-15 colon) 0.0214 µM | GI50 (HL-60(TB) leukemia) 0.0276 µM | GI50 (HOP-62 NSCLC) 0.19 µM | GI50 (HOP-92 NSCLC) 0.247 µM | GI50 (HS 578T breast) 0.0274 µM | GI50 (K-562 leukemia) 0.0236 µM | GI50 (KM12 colon) < 0.017 µM | GI50 (LOX IMVI melanoma) 0.0381 µM | GI50 (MALME-3M melanoma) 0.0739 µM | GI50 (MCF7 breast) 0.235 µM | GI50 (MDA-MB-231 breast) 0.0587 µM | GI50 (MOLT-4 leukemia) 0.0448 µM | GI50 (NCI-H23 lung) 0.0879 µM | GI50 (NCI-H460 lung) 0.0713 µM | GI50 (NCI-H522 lung) < 0.0189 µM | GI50 (NCI/ADR-RES ovarian) 0.0257 µM | GI50 (OVCAR-3 ovarian) 0.0374 µM | GI50 (OVCAR-4 ovarian) 0.415 µM | GI50 (OVCAR-8 ovarian) 0.0459 µM | GI50 (PC-3 prostate) 0.0402 µM | GI50 (RPMI-8226 leukemia) 0.0463 µM | GI50 (RXF 393 renal) 0.163 µM | GI50 (SF-268 CNS) 0.207 µM | GI50 (SF-295 CNS) 0.0396 µM | GI50 (SF-539 CNS) 0.0206 µM | GI50 (SK-MEL-2 melanoma) 0.211 µM | GI50 (SK-MEL-5 melanoma) 0.0552 µM | GI50 (SK-OV-3 ovarian) 0.228 µM | GI50 (SN12C renal) 0.0786 µM | GI50 (SNB-19 CNS) 0.0332 µM | GI50 (SNB-75 CNS) 0.026 µM | GI50 (SW-620 colon) 0.0366 µM | GI50 (U251 CNS) 0.0485 µM | GI50 (UO-31 renal) 0.0695 µM
0.0532 µM: TGI (SF-539 CNS)
inactive: GI50 (786-0 renal) 0.667 µM | GI50 (A498 renal) 1.84 µM | GI50 (COLO 205 colon) 7.77 µM | GI50 (HT29 colon) 3.73 µM | GI50 (IGROV1 ovarian) 0.672 µM | GI50 (NCI-H226 lung) 2.71 µM | GI50 (OVCAR-5 ovarian) 4.9 µM | GI50 (SK-MEL-28 melanoma) 1.42 µM | GI50 (T-47D breast) 5.95 µM | GI50 (TK-10 renal) 25 µM | GI50 (UACC-257 melanoma) 32.9 µM | GI50 (UACC-62 melanoma) 0.638 µM
1.35 µM: TGI (NCI-H460 lung)
6.03 µM: TGI (A498 renal)
0.0876 µM: TGI (HL-60(TB) leukemia)
> 55.6 µM: TGI (HT29 colon)
